# Results reported in US20130190285A1, “METHOD OF TREATING PANCREATIC CANCER” (Niiki Pharma Inc., priority 2009, published 2013).
# pIC50: −log10 of the molar value.
# Assays:
# [1] = system: HT29; settings: colon cancer cell line HT29; cited from earlier work
# [2] = system: SW480; settings: colon cancer cell line SW480; cited from earlier work
# [3] = system: PANC-1 cells; settings: cited from earlier work
# [4] = system: pancreatic cancer; settings: cited from earlier work
# [5] = system: Capan-1; settings: Capan-1, 72 hours post-treatment, MTT
# Protocol: (§1) To test the activities of sodium trans-[tetrachlorobis(1H-indazole)ruthenate(III)], ATCC's MTT Cell Proliferation Assay® was performed using human pancreatic cancer cell lines PANC-1 and Capan-1. Stock cultures were allowed to grow to 70-80% confluence for this study. The anti-proliferative activity of sodium trans-[tetrachlorobis(1H-indazole)ruthenate(III)], against the indicated cell lines was evaluated in vitro using the ATCC's MTT Cell Proliferation Assay (Catalog No. 30-1010K). PANC-1 cells were grown in DMEM medium with 10% FBS and 1% pen/strep/glutamine. Capan-1 cells were grown using IMDM medium 20% FBS and 1% of pen/strep/glutamine. Panc 1 and Capan-1 cell plates were seeded with 6000 cells/well and 15,000 cells/well, respectively, and treated with sodium trans-[tetrachlorobis(1H-indazole)ruthenate(III)] at 1,000 μM, or a series of 4× dilutions thereof (250 μM, 62.5 μM, etc.). 100 μl of medium was removed from each well at 72 hours post-treatment and MTT reagent was added to each well. The plates were incubated plate at 37° C. for 4 hours and then 100 μl of detergent was added. The plates were left overnight at room temperature in the dark and was read on a plate reader using SoftMax® Pro (version 5.2, Molecular Devices).
# (§2) The absorbance data was analyzed as follows: Absorbance values were converted to Percent of Control and plotted against test agent concentrations for IC50 calculations using SoftMax® Pro (version 5.2, Molecular Devices). The plate blank signal average was subtracted from all wells prior to calculating the Percent of Control. Percent of Control values were calculated by dividing the absorbance values for each test well by the No Drug Control average (column 11 values; cells+vehicle control) and multiplying by 100. Plots of Compound Concentration versus Percent of Control were analyzed using the 4-parameter equation to obtain IC50 values and other parameters that describe the sigmoidal dose response curve.
# (§3) The IC50 value for the test agents was estimated by curve-fitting the data using the following four parameter-logistic equation: […]
# [6] = system: PANC-1
# Protocol: as §1, §2, §3
# [7] = system: pancreatic tumor cell line MIA PaCa2; assay: live-cell staining with Calcein AM in 3-dimentional tumor model (HuBiogel); format: cell-based; settings: MIA PaCa2 3-D tumor beads, Day 3
# Protocol: (§4) The compound sodium trans-[tetrachlorobis(1H-indazole)ruthenate(III)] was tested in a 3-dimentional tumor model derived from pancreatic tumor cell line MIA PaCa2. Specifically, cells were trypsinized, washed, counted by trypan blue exclusion. Tumor beads were then prepared by mixing 20,000 cells/10 μl of HuBiogel (4 mg/mL) (See U.S. patent application Ser. No. 10/546,506, which is incorporated herein by reference). The 3-D tumor beads were cultivated for 72 hours in multi-well plates with complete media (10% FBS) in a 37° C. incubator+5% CO2. Mini-tumors were treated with various concentrations of the test compound sodium trans-[tetrachlorobis(1H-indazole)ruthenate(III)] in media (final 0.2-0.3% DMSO) or control (DMSO). Repeated drug treatment was done by removing the culture media and replacing with fresh media with drug compound or DMSO. On Day 3, MTT assay and live-cell staining with Calcein AM were performed (5 beads/assay set).
# (§5) Statistical analysis of data sets (Average, T-test, GI-50) was performed using MS-Excel program.
# [8] = system: pancreatic tumor cell line MIA PaCa2; assay: MTT assay in 3-dimentional tumor model (HuBiogel); format: cell-based; settings: MIA PaCa2 3-D tumor beads
# Protocol: as §4, §5
smiles,measurement,setting,value
"[Cl-].[Cl-].[Cl-].[Cl-].[Ru+3].c1ccc2[nH][nH+]cc2c1.c1ccc2[nH]ncc2c1.c1ccc2[nH]ncc2c1 [Indazolium trans-[tetrachlorobis(1H-indazole)ruthenate(III)], reference compound]",killing tumor cells,[1],effective in killing tumor cells
same,killing tumor cells,[2],effective in killing tumor cells
C#Cc1cccc(Nc2ncnc3cc(OCCOC)c(OCCOC)cc23)c1 [erlotinib],sensitivity of PANC-1 cells to the drug,[3],resistant
same,median overall survival benefit,"[4]; erlotinib in combination with gemcitabine, advanced-stage pancreatic cancer patients",less than four weeks
Nc1ccn([C@@H]2O[C@H](CO)[C@@H](O)C2(F)F)c(=O)n1 [gemcitabine],sensitivity of PANC-1 cells to the drug,[3],resistant
same,efficacy in pancreatic cancer,[4]; weekly intravenous administration,effective
[Cl][Ru-]([Cl])([Cl])[Cl].[Na+].c1ccc2[nH]ncc2c1.c1ccc2[nH]ncc2c1 [sodium trans-[tetrachlorobis(1H-indazole)ruthenate(III)]],pIC50,[5],4.34
same,pIC50,"[6]; PANC-1, 72 hours post-treatment, MTT",4.51
same,activity in cells resistant to gemcitabine and erlotinib,[6]; PANC-1 cells,active
same,killing tumor cells,[1],effective in killing tumor cells
same,killing tumor cells,[2],effective in killing tumor cells
same,tumor killing in live-cell staining/image analysis,[7],dose-dependent tumor killing effective
same,tumor proliferation activity (MTT),"[8]; Day 3, FIG. 1",significantly inhibited tumor proliferation activity
same,GI50,"[8]; MTT assay on Day 3, read-out: average GI-50 (the drug concentration required for growth inhibition at 50%)",35.7 µM
